The results in this text go back to US9434686B2, “Deacetylase inhibitors and uses thereof” (President and Fellows of Harvard College, priority 2008, dated 2016).

For the experiment, the target named is T1, HDAC6 (Homo sapiens, UniProt Q9UBN7).
T1 construct: endogenous in cells
T1 sequence (Q9UBN7 1-1215): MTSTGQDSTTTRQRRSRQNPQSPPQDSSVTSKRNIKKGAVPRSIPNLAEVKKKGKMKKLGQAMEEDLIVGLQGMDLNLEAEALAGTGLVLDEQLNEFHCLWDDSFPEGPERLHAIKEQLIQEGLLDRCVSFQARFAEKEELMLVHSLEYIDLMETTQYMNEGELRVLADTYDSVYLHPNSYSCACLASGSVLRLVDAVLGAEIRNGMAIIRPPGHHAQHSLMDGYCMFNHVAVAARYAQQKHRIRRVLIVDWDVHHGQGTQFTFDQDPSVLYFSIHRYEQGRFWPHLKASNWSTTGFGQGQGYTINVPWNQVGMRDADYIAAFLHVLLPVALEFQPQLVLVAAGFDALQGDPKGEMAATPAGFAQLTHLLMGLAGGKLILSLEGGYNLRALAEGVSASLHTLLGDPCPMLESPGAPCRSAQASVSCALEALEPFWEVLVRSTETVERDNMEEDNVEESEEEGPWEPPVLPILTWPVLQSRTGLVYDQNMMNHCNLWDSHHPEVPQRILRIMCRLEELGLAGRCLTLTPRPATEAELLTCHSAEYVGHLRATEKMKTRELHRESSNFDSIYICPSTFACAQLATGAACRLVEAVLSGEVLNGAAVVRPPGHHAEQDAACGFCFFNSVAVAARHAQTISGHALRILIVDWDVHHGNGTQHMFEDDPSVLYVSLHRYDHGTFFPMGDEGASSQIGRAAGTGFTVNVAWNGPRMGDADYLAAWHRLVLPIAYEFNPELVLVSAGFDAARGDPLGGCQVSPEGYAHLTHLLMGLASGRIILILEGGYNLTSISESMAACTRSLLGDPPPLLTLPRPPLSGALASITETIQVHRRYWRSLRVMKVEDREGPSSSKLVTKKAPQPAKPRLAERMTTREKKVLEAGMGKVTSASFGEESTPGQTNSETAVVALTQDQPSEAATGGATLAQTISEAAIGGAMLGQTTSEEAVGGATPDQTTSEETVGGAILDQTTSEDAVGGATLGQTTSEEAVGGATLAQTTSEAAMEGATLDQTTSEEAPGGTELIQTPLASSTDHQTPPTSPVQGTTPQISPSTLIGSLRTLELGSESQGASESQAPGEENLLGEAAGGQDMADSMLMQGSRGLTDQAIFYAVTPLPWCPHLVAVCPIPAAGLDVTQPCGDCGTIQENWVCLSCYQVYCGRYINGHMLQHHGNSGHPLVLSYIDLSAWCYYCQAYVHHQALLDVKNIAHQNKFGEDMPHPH
In words: High content acetylation assay (AcTubulin vs AcHistone) in cultured cells. Type of experiment: cell-based. To be noted: dose-range, TDAC activity as surrogate for HDAC6 inhibition. As for the experimental part: FIG. 2. High-throughput, high-content, quantitative detection method for identifying HDAC inhibitors. Cells are seeded in 384-well plates (2,000 cells/well) and treated with test compound, fixed, and then stained with Hoechst (nuclei), primary anti-AcTubulin monoclonal antibody and anti-AcHistone polyclonal antibody, then with compatible fluorophore-conjugated secondary antibodies. After automated image acquisition a custom analysis script identifies and masks cells, then derives quantitative fluorescence data from FITC (AcTubulin) and rhodamine (AcHistone) channels (MetaXPress; Molecular Devices).
FIG. 3. WT-161 Induction of AcTubulin (Red) and AcHistone (Blue) by HCS. As described in FIG. 2, the high content acetylation assay was employed to determine the comparative induction of acetylated histones versus acetylated tubulin across a dose-range of WT-161.
FIG. 4. […] Dose-response data from FIG. 3 have been used to generate EC50 values of cellular histone and tubulin acetylation effects of WT-161. […] HDAC activity is used to indicate biological activity of proteins mediating histone deacetylation, as this is a cellular assay measuring global effects on acetylation. TDAC activity is a surrogate measurement for HDAC6 inhibition in cultured cells.

`O=C(CCCCCCC(=O)N/N=C/c1ccc(N(c2ccccc2)c2ccccc2)cc1)NO` [WT-161]: the “Comparative induction of acetylated tubulin versus acetylated histones (cellular selectivity)” value is recorded as “Selective Inhibition of HDAC6”.
